SMILES strings stand for the structures.

Data set [1] is described as follows: Hydrolysis (acetal cleavage) of pyridoxal acetal salts in D2O/DMSO-d6, release of the alcohol monitored by time-dependent 1H NMR. To be noted: for release of alcohol from the respective pyridoxal acetal: 0.2 M, 30% D2O in DMSO-d6, after 22 hours. It counts as physicochemical. The protocol: The hydrolysis of the target alcohol from the pyridoxal acetal salt in the presence of D2O was monitored by ^1H NMR spectroscopy. This was accomplished by comparing the formation of hemiacetal C—H peak to the loss of the acetal C—H peak. For substrate 3a, the integration of the acetal C—H peak at 6.58 ppm was compared to the integration of the pyridoxal hemiacetal C—H peak at 6.41 ppm hourly to determine conversion. A stack plot of the NMR spectra for 50% D2O solution in DMSO-d6 over 20 hours is illustrated in FIG. 2.
To determine the kinetics of the hydrolysis with respect to the concentration of water, acetal 3a was exposed to varying concentrations of D2O The release of ethanol from 3a was measured at concentrations of 25%, 35%, 50%, and 100% D2O in DMSO-d6 and is plotted in FIG. 3. […] The 100% D2O trial provides full cleavage after 10 hours whereas a lowest concentration of D2O (25%) provides the slowest release at only 28% cleaved after 25 hours. The 50% D2O trial provided 74% release after 25 hours and the 35% D2O trial provided 42% release.
The rate of release for ethanol (blue), isopropanol (red), 2-phenylethanol (green), and geraniol (purple) were monitored at a 0.2 M concentration of 30% D2O in DMSO-d6 from the respective pyridoxal acetal. […] In all cases, the acetals hydrolyze to release the target molecule and pyridoxal HCl quantitatively. Since other fragrance delivery systems can lose material in side reactions (H. Q. N. Gunaratne et al., Chem. Commun., 2015, 51, 4455), the high fidelity in the release for these alcohols is significant.
The acetal cleavage was measured by comparing the integration of Ha to Hb whereas Hb/(Ha+Hb) provides the percent completion for the acetal cleavage for 3a and 3b. The stack plots in FIGS. 7-11 provide a visual counterpart to the graphs. 3c had some overlap between Ha and Hb so the fully separated methyl groups of the isopropyl were integrated instead.
3a (0.1636 mmol) was dissolved in 0.4 mL of DMSO-d6 (except for 100% D2O) and varying amounts of D2O were added, as shown in the table below (see corresponding stack plots in FIGS. 7-11).

Regarding `Cc1ncc2c(c1O)C(OCCc1ccccc1)OC2.Cl` (stereo not shown), the melting point (commonly the temperature of the solid-liquid transition) lay in the range of 168 to 172 °C.

In turn, `Cc1ncc2c(c1O)C(OC(C)C)OC2.Cl` (stereo not shown) [3c, 7-hydroxy-1-isopropoxy-6-methyl-1,3-dihydrofuro[3,4-c]pyridin-5-ium chloride] registered a melting point of 116 to 121 °C. For the same molecule, in data set [1], the “release of alcohol from the respective pyridoxal acetal” value stood at 37%.

In the case of `CCOC1OCc2cnc(C)c(O)c21.Cl` (stereo not shown) [3a, 1-ethoxy-7-hydroxy-6-methyl-1,3-dihydrofuro[3,4-c]pyridin-5-ium chloride], the melting point was in the range of 97 to 103 °C. In addition, the “release of alcohol from the respective pyridoxal acetal” value in data set [1] is listed as 35%. In data set [1] (25% D2O in DMSO-d6, after 25 hours), the “acetal cleaved (release of ethanol)” value was determined as 28%. Moreover, the “dependence of release rate on water concentration” value in data set [1] (25%, 35%, 50%, 100% D2O in DMSO-d6, FIG. 3) was “rate increases with higher concentrations of D2O”. The release of ethanol in data set [1] (35% D2O in DMSO-d6 (time not restated; 25 hours implied)) came to 42%. Besides, in data set [1] (50% D2O in DMSO-d6, after 25 hours), the release of ethanol turned out to be 74%. Besides, in data set [1] (100% D2O, after 10 hours, 1H NMR), the “cleavage of acetal (release of ethanol)” value is on record as “full cleavage”.

The record behind these values is patent publication US11958859B2, “Use of pyridoxal acetal salts as water-triggered pro-fragrances” (Florida Gulf Coast University Board of Trustees, priority 2018, dated 2024).
